Laboratory results as given in PubChem BioAssay AID2060882 (Molecular Pharmacology Branch, DTP, NCI, 2025).

Test system: 898857-211-R-J1-PDC complex spheroids, growth % test/control
Experiment: Anticancer human tumor 898857-211-R-J1-PDC patient-derived melanoma cell line growth inhibition [RAS]
Conditions: for IC50: curve of first compound; for viability, T/C: stronger effect = lower value
Outline: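 Multi-cell-type spheroids: tumor cells plus HUVEC endothelial cells and mesenchymal stem cells. RAS-pathway inhibitors were combined with targeted agents, each dosed in half-log steps down from clinical Cmax, or from 10 microM when Cmax was unknown.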

[1] = second compound 0.000949 µM, first compound 0.00316 µM
[2] = second compound 0.000949 µM, first compound 0.01 µM
[3] = second compound 0.000949 µM, first compound 0.0316 µM
[4] = second compound 0.000949 µM, first compound 0.1 µM
[5] = second compound 0.000949 µM, first compound 0.316 µM
[6] = second compound 0.000949 µM, first compound 1 µM
[7] = second compound 0.003 µM, first compound 0.00316 µM
[8] = second compound 0.003 µM, first compound 0.01 µM
[9] = second compound 0.003 µM, first compound 0.0316 µM
[10] = second compound 0.003 µM, first compound 0.1 µM
[11] = second compound 0.003 µM, first compound 0.316 µM
[12] = second compound 0.003 µM, first compound 1 µM
[13] = second compound 0.00949 µM, first compound 0.00316 µM
[14] = second compound 0.00949 µM, first compound 0.01 µM
[15] = second compound 0.00949 µM, first compound 0.0316 µM
[16] = second compound 0.00949 µM, first compound 0.1 µM
[17] = second compound 0.00949 µM, first compound 0.316 µM
[18] = second compound 0.00949 µM, first compound 1 µM
[19] = second compound 0.03 µM, first compound 0.00316 µM
[20] = second compound 0.03 µM, first compound 0.01 µM
[21] = second compound 0.03 µM, first compound 0.0316 µM
[22] = second compound 0.03 µM, first compound 0.1 µM
[23] = second compound 0.03 µM, first compound 0.316 µM
[24] = second compound 0.03 µM, first compound 1 µM
[25] = second compound 0.0949 µM, first compound 0.00316 µM
[26] = second compound 0.0949 µM, first compound 0.01 µM
[27] = second compound 0.0949 µM, first compound 0.0316 µM
[28] = second compound 0.0949 µM, first compound 0.1 µM
[29] = second compound 0.0949 µM, first compound 0.316 µM
[30] = second compound 0.0949 µM, first compound 1 µM
[31] = second compound 0.3 µM, first compound 0.00316 µM
[32] = second compound 0.3 µM, first compound 0.01 µM
[33] = second compound 0.3 µM, first compound 0.0316 µM
[34] = second compound 0.3 µM, first compound 0.1 µM
[35] = second compound 0.3 µM, first compound 0.316 µM
[36] = second compound 0.3 µM, first compound 1 µM
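Note: spheroids exposed to compound for seven days before readout.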
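Throughout, for viability, T/C: 100% = DMSO vehicle control wells.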

SMILES: C=CC(=O)N1CCN(c2nc(OCC3CCCN3C)nc3c(F)c(-c4nc(N)cc(C)c4C(F)(F)F)c(Cl)cc23)C(C)C1 (stereo not drawn) + CCn1c(-c2cc(N3CCN(C)CC3)cnc2C(C)OC)c2c3cc(ccc31)-c1csc(n1)CC(NC(=O)C1CC1C)C(=O)N1CCCC(N1)C(=O)OCC(C)(C)C2
- IC50 (second compound 0.000949 µM): > 1000 nM
- IC50 (second compound 0.003 µM): > 1000 nM
- IC50 (second compound 0.00949 µM): > 1000 nM
- IC50 (second compound 0.03 µM): > 1000 nM
- IC50 (second compound 0.0949 µM): > 1000 nM
- IC50 (second compound 0.3 µM): > 1000 nM
- viability, T/C [1]: 124%
- viability, T/C [2]: 106%
- viability, T/C [3]: 105%
- viability, T/C [4]: 111%
- viability, T/C [5]: 127%
- viability, T/C [6]: 126%
- viability, T/C [7]: 99.6%
- viability, T/C [8]: 104%
- viability, T/C [9]: 116%
- viability, T/C [10]: 101%
- viability, T/C [11]: 114%
- viability, T/C [12]: 108%
- viability, T/C [13]: 101%
- viability, T/C [14]: 112%
- viability, T/C [15]: 98.9%
- viability, T/C [16]: 101%
- viability, T/C [17]: 118%
- viability, T/C [18]: 104%
- viability, T/C [19]: 106%
- viability, T/C [20]: 112%
- viability, T/C [21]: 103%
- viability, T/C [22]: 121%
- viability, T/C [23]: 110%
- viability, T/C [24]: 110%
- viability, T/C [25]: 111%
- viability, T/C [26]: 117%
- viability, T/C [27]: 117%
- viability, T/C [28]: 116%
- viability, T/C [29]: 120%
- viability, T/C [30]: 110%
- viability, T/C [31]: 123%
- viability, T/C [32]: 111%
- viability, T/C [33]: 100%
- viability, T/C [34]: 116%
- viability, T/C [35]: 111%
- viability, T/C [36]: 99.7%

SMILES: CC1(C)CCC(Nc2ncc(C(F)(F)F)c(-c3c[nH]c4c(P(C)(C)=O)c(C#N)ccc34)n2)CN1 (stereo not drawn) + CCn1c(-c2cc(N3CCN(C)CC3)cnc2C(C)OC)c2c3cc(ccc31)-c1csc(n1)CC(NC(=O)C1CC1C)C(=O)N1CCCC(N1)C(=O)OCC(C)(C)C2
- IC50 (second compound 0.000949 µM): 2.87 nM
- IC50 (second compound 0.003 µM): 2.98 nM
- IC50 (second compound 0.00949 µM): 3.56 nM
- IC50 (second compound 0.03 µM): 2.5 nM
- IC50 (second compound 0.0949 µM): 3.54 nM
- IC50 (second compound 0.3 µM): 2.87 nM
- viability, T/C (second compound 0.000949 µM, first compound 0.000949 µM): 104%
- viability, T/C (second compound 0.000949 µM, first compound 0.003 µM): 47.7%
- viability, T/C (second compound 0.000949 µM, first compound 0.00949 µM): 24.2%
- viability, T/C (second compound 0.000949 µM, first compound 0.03 µM): 16.2%
- viability, T/C (second compound 0.000949 µM, first compound 0.0949 µM): 17.3%
- viability, T/C (second compound 0.000949 µM, first compound 0.3 µM): 15.1%
- viability, T/C (second compound 0.003 µM, first compound 0.000949 µM): 79.3%
- viability, T/C (second compound 0.003 µM, first compound 0.003 µM): 49.8%
- viability, T/C (second compound 0.003 µM, first compound 0.00949 µM): 25.2%
- viability, T/C (second compound 0.003 µM, first compound 0.03 µM): 18.4%
- viability, T/C (second compound 0.003 µM, first compound 0.0949 µM): 16%
- viability, T/C (second compound 0.003 µM, first compound 0.3 µM): 17.5%
- viability, T/C (second compound 0.00949 µM, first compound 0.000949 µM): 83.1%
- viability, T/C (second compound 0.00949 µM, first compound 0.003 µM): 54.7%
- viability, T/C (second compound 0.00949 µM, first compound 0.00949 µM): 23.2%
- viability, T/C (second compound 0.00949 µM, first compound 0.03 µM): 15.7%
- viability, T/C (second compound 0.00949 µM, first compound 0.0949 µM): 17.8%
- viability, T/C (second compound 0.00949 µM, first compound 0.3 µM): 17.8%
- viability, T/C (second compound 0.03 µM, first compound 0.000949 µM): 83.3%
- viability, T/C (second compound 0.03 µM, first compound 0.003 µM): 43.7%
- viability, T/C (second compound 0.03 µM, first compound 0.00949 µM): 23.4%
- viability, T/C (second compound 0.03 µM, first compound 0.03 µM): 19.8%
- viability, T/C (second compound 0.03 µM, first compound 0.0949 µM): 17.5%
- viability, T/C (second compound 0.03 µM, first compound 0.3 µM): 18.3%
- viability, T/C (second compound 0.0949 µM, first compound 0.000949 µM): 81.3%
- viability, T/C (second compound 0.0949 µM, first compound 0.003 µM): 54%
- viability, T/C (second compound 0.0949 µM, first compound 0.00949 µM): 26.2%
- viability, T/C (second compound 0.0949 µM, first compound 0.03 µM): 19.4%
- viability, T/C (second compound 0.0949 µM, first compound 0.0949 µM): 18.1%
- viability, T/C (second compound 0.0949 µM, first compound 0.3 µM): 16.6%
- viability, T/C (second compound 0.3 µM, first compound 0.000949 µM): 78.5%
- viability, T/C (second compound 0.3 µM, first compound 0.003 µM): 48.9%
- viability, T/C (second compound 0.3 µM, first compound 0.00949 µM): 23.7%
- viability, T/C (second compound 0.3 µM, first compound 0.03 µM): 18.4%
- viability, T/C (second compound 0.3 µM, first compound 0.0949 µM): 16%
- viability, T/C (second compound 0.3 µM, first compound 0.3 µM): 17.2%

SMILES: C=CC(=O)Nc1cc(Nc2nccc(-c3cn(C)c4ccccc34)n2)c(OC)cc1N(C)CCN(C)C + CCn1c(-c2cccnc2C(C)OC)c2c3cc(ccc31)N1CCOC(CC(NC(=O)C(C(C)C)N(C)C(=O)C3(F)CCN(C(=O)C#CC(C)(C)N(C)C)CC3)C(=O)N3CCCC(N3)C(=O)OCC(C)(C)C2)C1
- IC50 (second compound 0.000949 µM): > 1000 nM
- IC50 (second compound 0.003 µM): 942 nM
- IC50 (second compound 0.00949 µM): > 1000 nM
- IC50 (second compound 0.03 µM): > 1000 nM
- IC50 (second compound 0.0949 µM): > 1000 nM
- IC50 (second compound 0.3 µM): 848 nM
- viability, T/C [1]: 104%
- viability, T/C [2]: 103%
- viability, T/C [3]: 107%
- viability, T/C [4]: 84.9%
- viability, T/C [5]: 95.9%
- viability, T/C [6]: 56.3%
- viability, T/C [7]: 99.3%
- viability, T/C [8]: 99.9%
- viability, T/C [9]: 108%
- viability, T/C [10]: 95.4%
- viability, T/C [11]: 94.1%
- viability, T/C [12]: 47.1%
- viability, T/C [13]: 95.8%
- viability, T/C [14]: 97.8%
- viability, T/C [15]: 102%
- viability, T/C [16]: 94.8%
- viability, T/C [17]: 91.4%
- viability, T/C [18]: 59.9%
- viability, T/C [19]: 107%
- viability, T/C [20]: 105%
- viability, T/C [21]: 106%
- viability, T/C [22]: 110%
- viability, T/C [23]: 90.2%
- viability, T/C [24]: 58.3%
- viability, T/C [25]: 105%
- viability, T/C [26]: 98.2%
- viability, T/C [27]: 92.3%
- viability, T/C [28]: 96.6%
- viability, T/C [29]: 92.2%
- viability, T/C [30]: 57%
- viability, T/C [31]: 84.8%
- viability, T/C [32]: 67.8%
- viability, T/C [33]: 77.7%
- viability, T/C [34]: 76.1%
- viability, T/C [35]: 71.4%
- viability, T/C [36]: 46.4%

SMILES: O=C(c1ccc(F)c(F)c1Nc1ccc(I)cc1F)N1CC(O)([C@@H]2CCCCN2)C1 + CCn1c(-c2cccnc2C(C)OC)c2c3cc(ccc31)N1CCOC(CC(NC(=O)C(C(C)C)N(C)C(=O)C3(F)CCN(C(=O)C#CC(C)(C)N(C)C)CC3)C(=O)N3CCCC(N3)C(=O)OCC(C)(C)C2)C1
- IC50 (second compound 0.000949 µM): 3.75 nM
- IC50 (second compound 0.003 µM): 3.67 nM
- IC50 (second compound 0.00949 µM): 4.67 nM
- IC50 (second compound 0.03 µM): 3.3 nM
- IC50 (second compound 0.0949 µM): < 3.16 nM
- IC50 (second compound 0.3 µM): < 3.16 nM
- viability, T/C [1]: 53.5%
- viability, T/C [2]: 36.4%
- viability, T/C [3]: 29.6%
- viability, T/C [4]: 23.9%
- viability, T/C [5]: 16.6%
- viability, T/C [6]: 12%
- viability, T/C [7]: 52.9%
- viability, T/C [8]: 35.4%
- viability, T/C [9]: 26.5%
- viability, T/C [10]: 22.4%
- viability, T/C [11]: 15.9%
- viability, T/C [12]: 11.8%
- viability, T/C [13]: 55.8%
- viability, T/C [14]: 39.3%
- viability, T/C [15]: 27.3%
- viability, T/C [16]: 21.6%
- viability, T/C [17]: 15.7%
- viability, T/C [18]: 12.7%
- viability, T/C [19]: 50.5%
- viability, T/C [20]: 35.5%
- viability, T/C [21]: 21.8%
- viability, T/C [22]: 20.4%
- viability, T/C [23]: 15.6%
- viability, T/C [24]: 12.4%
- viability, T/C [25]: 44.8%
- viability, T/C [26]: 35.4%
- viability, T/C [27]: 28.3%
- viability, T/C [28]: 18.2%
- viability, T/C [29]: 15.6%
- viability, T/C [30]: 13.4%
- viability, T/C [31]: 33.8%
- viability, T/C [32]: 29.3%
- viability, T/C [33]: 20.9%
- viability, T/C [34]: 16.6%
- viability, T/C [35]: 13.6%
- viability, T/C [36]: 10.7%
